# Measured values published in patent publication US9938261B2, “Heterocyclic compounds and methods of use thereof” (AMBIT BIOSCIENCES CORPORATION, priority 2011, dated 2018).
# pKd: −log10 of the molar value.
# Experiments:
# FLT3 = biological target: T1, FLT3 (Homo sapiens, UniProt P36888); test: Competition binding assay, FLT3 Kd; settings: competition binding
# T1 construct: made in house
# T1 sequence (P36888 27-993): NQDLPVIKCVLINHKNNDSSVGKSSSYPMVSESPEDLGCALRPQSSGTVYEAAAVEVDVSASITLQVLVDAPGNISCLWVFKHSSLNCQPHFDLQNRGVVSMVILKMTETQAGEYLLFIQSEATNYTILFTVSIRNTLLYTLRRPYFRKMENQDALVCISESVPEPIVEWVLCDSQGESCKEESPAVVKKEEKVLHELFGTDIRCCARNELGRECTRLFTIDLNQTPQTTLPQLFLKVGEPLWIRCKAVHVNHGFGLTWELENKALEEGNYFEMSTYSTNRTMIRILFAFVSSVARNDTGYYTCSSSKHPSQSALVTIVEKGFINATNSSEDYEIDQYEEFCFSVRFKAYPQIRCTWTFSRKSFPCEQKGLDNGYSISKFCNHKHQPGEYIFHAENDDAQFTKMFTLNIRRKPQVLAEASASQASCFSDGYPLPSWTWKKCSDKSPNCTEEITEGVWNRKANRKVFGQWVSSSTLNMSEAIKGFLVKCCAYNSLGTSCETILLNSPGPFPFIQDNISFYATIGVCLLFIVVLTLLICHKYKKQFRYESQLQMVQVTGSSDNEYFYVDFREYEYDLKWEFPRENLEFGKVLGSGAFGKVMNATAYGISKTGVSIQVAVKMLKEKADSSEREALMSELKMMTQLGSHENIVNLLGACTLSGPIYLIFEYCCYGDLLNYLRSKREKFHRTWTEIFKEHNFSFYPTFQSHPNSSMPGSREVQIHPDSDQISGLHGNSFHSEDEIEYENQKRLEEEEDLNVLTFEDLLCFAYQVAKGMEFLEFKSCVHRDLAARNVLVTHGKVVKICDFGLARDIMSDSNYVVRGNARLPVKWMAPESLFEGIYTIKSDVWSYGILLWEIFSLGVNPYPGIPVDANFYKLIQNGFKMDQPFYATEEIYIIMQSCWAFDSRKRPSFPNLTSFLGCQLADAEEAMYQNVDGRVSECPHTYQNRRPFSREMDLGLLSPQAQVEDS
# Summary of the method: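 First, biotinylated affinity ligands were loaded onto streptavidin magnetic beads and blocked. Kinase, beads and compound were then equilibrated 1 hour at room temperature, washed, and eluted with non-biotinylated ligand. Eluted kinase was measured by qPCR, with Kd fitted from an eleven-point threefold dilution series.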
# [1] = biological target: kinase panel containing either 386 or 392 distinct kinases; test: Kinase selectivity score S10 from competition binding panel; settings: 10 μM, panel of 386 or 392 distinct kinases
# Summary of the method: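 S10 is the number of kinases with percent-of-control under 10, divided by all distinct wild-type kinases tested, from a single 10 μM concentration. Binding measured by qPCR of kinase recovered from ligand-coated beads after 1 h equilibrium at room temperature; kinases were phage fusions or DNA-tagged HEK-293 products.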
pKd (FLT3),Kinase specificity S(10) [1],Structure (SMILES)
6.00 to 6.70,B (0.01<B≤0.02),"CNC(=O)c1ccc2c(c1)ncn2Cc1ccc2nc(N[C@@H]3CCCC[C@H]3O)sc2c1 [Example 173, 1-((2-(((1R,2R)-2-hydroxycyclohexyl)amino)benzo[d]thiazol-6-yl)methyl)-N-methyl-1H-benzo[d]imidazole-5-carboxamide]"
≥ 6.70,C (C>0.02),"O[C@@H]1CCCC[C@H]1Nc1nc2ccc(Cn3cnc4cc(F)cnc43)cc2o1 [Example 132, (1R,2R)-2-((6-((6-fluoro-3H-imidazo[4,5-b]pyridin-3-yl)methyl)benzo[d]oxazol-2-yl)amino)cyclohexanol]"
5.30 to 6.00,A (A≤0.01),"O=C(c1ccn2c(Cc3ccc4nc(N[C@@H]5CCCC[C@H]5O)sc4c3)cnc2c1)N1CCCC1 [Example 223, (3-((2-(((1R,2R)-2-hydroxycyclohexyl)amino)benzo[d]thiazol-6-yl)methyl)imidazo[1,2-a]pyridin-7-yl)(pyrrolidin-1-yl)methanone]"
6.00 to 6.70,B (0.01<B≤0.02),"O[C@@H]1CCCC[C@H]1Nc1nc2ccc(Cn3cnc4cc(-n5cccn5)cnc43)cc2s1 [Example 141, (1R,2R)-2-((6-((6-(1H-pyrazol-1-yl)-3H-imidazo[4,5-b]pyridine-3-yl)methyl)benzo[d]thiazol-2-yl)amino)cyclohexanol]"
6.00 to 6.70,B (0.01<B≤0.02),"COc1nc2c(cc1Br)ncn2Cc1ccc2nc(N[C@@H]3CCCC[C@H]3O)sc2c1 [Example 123, (1R,2R)-2-((6-((6-bromo-5-methoxy-3H-imidazo[4,5-b]pyridin-3-yl)methyl)benzo[d]thiazol-2-yl)amino)cyclohexanol]"
< 5.30,A (A≤0.01),"N#Cc1cnc2c(c1)ncn2Cc1ccc2nc(N[C@@H]3CCCC[C@H]3CO)sc2c1 [Example 140, 3-((2-(((1R,2R)-2-(hydroxymethyl)cyclohexyl)amino)benzo[d]thiazol-6-yl)methyl)-3H-imidazo[4,5-b]pyridine-6-carbonitrile]"
6.00 to 6.70,B (0.01<B≤0.02),"O[C@@H]1CCCC[C@H]1Nc1nc2ccc(Cc3cnc4ccc(Cl)nn34)cc2s1 [Example 158, (1R,2R)-2-((6-((6-chloroimidazo[1,2-b]pyridazin-3-yl)methyl)benzo[d]thiazol-2-yl)amino)cyclohexanol]"
5.30 to 6.00,A (A≤0.01),"C#Cc1ccc2c(c1)ncn2Cc1ccc2nc(N[C@@H]3CCCC[C@H]3O)sc2c1 [Example 121, (1R,2R)-2-((6-((5-ethynyl-1H-benzo[d]imidazol-1-yl)methyl)benzo[d]thiazol-2-yl)amino)cyclohexanol]"
5.30 to 6.00,B (0.01<B≤0.02),"CNC(=O)c1ccc2ncc(Cc3ccc4nc(N[C@@H]5CCCC[C@H]5O)sc4c3)n2n1 [Example 143, 3-((2-(((1R,2R)-2-hydroxycyclohexyl)amino)benzo[d]thiazol-6-yl)methyl)-N-methylimidazo[1,2-b]pyridazine-6-carboxamide]"
< 5.30,A (A≤0.01),"N#Cc1ccc2c(c1)ncn2Cc1ccc2nc(N[C@@H]3CCCC[C@H]3O)sc2c1 [Example 108, 1-((2-(((1R,2R)-2-hydroxycyclohexyl)amino)benzo[d]thiazol-6-yl)methyl)-1H-benzo[d]imidazole-5-carbonitrile]"
6.00 to 6.70,A (A≤0.01),"COc1nc2c(cc1C#N)ncn2Cc1ccc2nc(N[C@@H]3CCCC[C@H]3O)sc2c1 [Example 126, 3-((2-(((1R,2R)-2-hydroxycyclohexyl)amino)benzo[d]thiazol-6-yl)methyl)-5-methoxy-3H-imidazo[4,5-b]pyridine-6-carbonitrile]"
5.30 to 6.00,A (A≤0.01),"CC(=O)c1ccc2c(c1)ncn2Cc1ccc2nc(N[C@@H]3CCCC[C@H]3O)sc2c1 [Example 110, 1-(1-((2-(((1R,2R)-2-hydroxycyclohexyl)amino)benzo[d]thiazol-6-yl)methyl)-1H-benzo[d]imidazol-5-yl)ethanone]"
6.00 to 6.70,B (0.01<B≤0.02),"COc1ccc2ncc(Cc3ccc4nc(N[C@@H]5CCCC[C@H]5O)sc4c3)n2n1 [Example 150, (1R,2R)-2-((6-((6-methoxyimidazo[1,2-b]pyridazin-3-yl)methyl)benzo[d]thiazol-2-yl)amino)cyclohexanol]"
5.30 to 6.00,A (A≤0.01),"O[C@@H]1CCCC[C@H]1Nc1nc2ccc(Cn3cnc4cc(OC(F)(F)F)ccc43)cc2s1 [Example 149, (1R,2R)-2-((6-((5-(trifluoromethoxy)-1H-benzo[d]imidazol-1-yl)methyl)benzo[d]thiazol-2-yl)amino)cyclohexanol]"
< 5.30,A (A≤0.01),"N#Cc1ccn2c(Cc3ccc4nc(N[C@@H]5CCCC[C@H]5O)sc4c3)cnc2c1 [Example 117, 3-((2-(((1R,2R)-2-hydroxycyclohexyl)amino)benzo[d]thiazol-6-yl)methyl)imidazo[1,2-a]pyridine-7-carbonitrile]"
5.30 to 6.00,A (A≤0.01),"O[C@@H]1CCCC[C@H]1Nc1nc2ccc(Cc3cnc4ccc(-n5cccn5)cn34)cc2s1 [Example 159, (1R,2R)-2-((6-((6-(1H-pyrazol-1-yl)imidazo[1,2-a]pyridin-3-yl)methyl)benzo[d]thiazol-2-yl)amino)cyclohexanol]"
5.30 to 6.00,A (A≤0.01),"O[C@H]1CCCC[C@H]1Nc1nc2ccc(Cn3cnc4cc(F)cnc43)cc2s1 [Example 162, (1S,2R)-2-((6-((6-fluoro-3H-imidazo[4,5-b]pyridin-3-yl)methyl)benzo[d]thiazol-2-yl)amino)cyclohexanol]"
< 5.30,A (A≤0.01),"N#Cc1ccc2c(c1)ncn2Cc1ccc2nc(N[C@@H]3CCCC[C@H]3O)oc2c1 [Example 170, 1-((2-(((1R,2R)-2-hydroxycyclohexyl)amino)benzo[d]oxazol-6-yl)methyl)-1H-benzo[d]imidazole-5-carbonitrile]"
5.30 to 6.00,A (A≤0.01),"O[C@@H]1CCCC[C@H]1Nc1nc2cc(F)c(Cn3cnc4cccnc43)cc2s1 [Example 154, (1R,2R)-2-((6-((3H-imidazo[4,5-b]pyridin-3-yl)methyl)-5-fluorobenzo[d]thiazol-2-yl)amino)cyclohexanol]"
< 5.30,A (A≤0.01),"O[C@H]1CC[C@H](Nc2nc3ccc(Cn4cnc5cc(F)cnc54)cc3s2)CC1 [Example 163, trans-4-((6-((6-fluoro-3H-imidazo[4,5-b]pyridin-3-yl)methyl)benzo[d]thiazol-2-yl)amino)cyclohexanol]"
5.30 to 6.00,A (A≤0.01),"O[C@@H]1CCCC[C@H]1Nc1nc2ncc(Cn3cnc4cccnc43)cc2s1 [Example 114, (1R,2R)-2-((6-((3H-imidazo[4,5-b]pyridine-3-yl)methyl)thiazolo[4,5-b]pyridine-2-yl)amino)cyclohexanol]"
< 5.30,A (A≤0.01),"O[C@H]1[C@@H](O)CCC[C@H]1Nc1nc2ccc(Cn3cnc4cc(F)cnc43)cc2s1 [Example 228, (1S,2R,3R)-3-((6-((6-fluoro-3H-imidazo[4,5-b]pyridin-3-yl)methyl)benzo[d]thiazol-2-yl)amino)cyclohexane-1,2-diol]"
